Test results from patent US7705189B2, “Calixarene compound, process for producing the same, intermediate therefor, and composition thereof” (JSR Corporation, priority 2004, dated 2010).

Assay: Solubility test (2 ml solvent added to 2 mg derivative)
Type: physicochemical
Conditions: not given
Protocol: A solubility test was carried out by adding 2 ml of each of the solvents shown in Table 4 to 2 mg of each of the derivatives listed in Table 4.

Compound	Solubility in acetone and methylene chloride
CC1=C2OCOc3c4cc5c(c3C)OCOc3c6cc7c(c3C)OCOc3c8cc9c(c3C)OCOc3c%10cc%11c(c3C)OCOc3c%12cc%13c(c3C)OCOc3c(cc%14c(c3C)OCOc3c%15cc%16c(c3C)OCOc3c(cc%17c(c3C)OCOc3c%18cc%19c(c3C)OCOc3c(cc%20c(c3C)OCOc3c(cc%21c(c3C)OCOC1=C(C=C2C4CCCC9%10)C%21CCCC%18%17)C%20CCCC56)C%19CCCC%15%14)C%16CCCC%11%12)C%13CCCC78 (stereo not drawn) [formula (33)]	dissolved in acetone and methylene chloride

Assay: Thermal characteristics by TG/DTA
Type: physicochemical
Conditions: nitrogen atmosphere, temperature rise 10° C./min
Description: TG/DTA and DSC were used for the determination of the decomposition initiation temperature, 5% mass reduction temperature, and glass transition temperature of the derivatives shown in Table 3. The glass transition temperature could not be determined in any of the compounds. All compounds were confirmed to have high heat resistance. Comparison of T3 with T3-7 in which vinyl ether was deprotected and a spacer was introduced confirmed that there were almost no changes in the decomposition initiation temperature and 5% mass reduction temperature caused by introduction of the spacer. The lower decomposition initiation temperatures of these compounds as compared with other derivatives are due to their slight acidity resulting from the hydroxyl groups. […] T3-2a decomposed in two stages, that is, first the decomposition of phthalic acid ester bond and second the decomposition of the ester bond of methacryloyl groups.

Compound	First decomposition temperature: 5% mass decomposition temperature	First decomposition temperature: Decomposition initiation temperature
C=C(C)C(=O)Oc1cc(OC(=O)C(=C)C)c2cc1C1CCCC3c4cc(c(OC(=O)C(=C)C)cc4OC(=O)C(=C)C)C4CCCC5c6cc(c(OC(=O)C(=C)C)cc6OC(=O)C(=C)C)C(CCCC6c7cc(c(OC(=O)C(=C)C)cc7OC(=O)C(=C)C)C(CCCC7c8cc(c(OC(=O)C(=C)C)cc8OC(=O)C(=C)C)C(CCCC(c8cc(c(OC(=O)C(=C)C)cc8OC(=O)C(=C)C)C(CCCC2c2cc4c(OC(=O)C(=C)C)cc2OC(=O)C(=C)C)c2cc7c(OC(=O)C(=C)C)cc2OC(=O)C(=C)C)c2cc1c(OC(=O)C(=C)C)cc2OC(=O)C(=C)C)c1cc6c(OC(=O)C(=C)C)cc1OC(=O)C(=C)C)c1cc5c(OC(=O)C(=C)C)cc1OC(=O)C(=C)C)c1cc3c(OC(=O)C(=C)C)cc1OC(=O)C(=C)C [T3-1]	418 °C	387 °C
C=COCCOc1cc(OCCOC=C)c2cc1C1CCCC3c4cc(c(OCCOC=C)cc4OCCOC=C)C4CCCC5c6cc(c(OCCOC=C)cc6OCCOC=C)C(CCCC6c7cc(c(OCCOC=C)cc7OCCOC=C)C(CCCC7c8cc(c(OCCOC=C)cc8OCCOC=C)C(CCCC(c8cc(c(OCCOC=C)cc8OCCOC=C)C(CCCC2c2cc4c(OCCOC=C)cc2OCCOC=C)c2cc7c(OCCOC=C)cc2OCCOC=C)c2cc1c(OCCOC=C)cc2OCCOC=C)c1cc6c(OCCOC=C)cc1OCCOC=C)c1cc5c(OCCOC=C)cc1OCCOC=C)c1cc3c(OCCOC=C)cc1OCCOC=C [T3-6]	365 °C	336 °C
OCCOc1cc(OCCO)c2cc1C1CCCC3c4cc(c(OCCO)cc4OCCO)C4CCCC5c6cc(c(OCCO)cc6OCCO)C(CCCC6c7cc(c(OCCO)cc7OCCO)C(CCCC7c8cc(c(OCCO)cc8OCCO)C(CCCC(c8cc(c(OCCO)cc8OCCO)C(CCCC2c2cc4c(OCCO)cc2OCCO)c2cc7c(OCCO)cc2OCCO)c2cc1c(OCCO)cc2OCCO)c1cc6c(OCCO)cc1OCCO)c1cc5c(OCCO)cc1OCCO)c1cc3c(OCCO)cc1OCCO [T3-7]	348 °C	375 °C
Oc1cc(O)c2cc1C1CCCC3c4cc(c(O)cc4O)C4CCCC5c6cc(c(O)cc6O)C(CCCC6c7cc(c(O)cc7O)C(CCCC7c8cc(c(O)cc8O)C(CCCC(c8cc(c(O)cc8O)C(CCCC2c2cc4c(O)cc2O)c2cc7c(O)cc2O)c2cc1c(O)cc2O)c1cc6c(O)cc1O)c1cc5c(O)cc1O)c1cc3c(O)cc1O [T3]	365 °C	333 °C
